# Measurements from PMC10746543, “Design principles for cyclin K molecular glue degraders” (Nature Chemical Biology, 2023).
# Values joined by “and” are separate entries in the source; they are usually repeats but may differ in a detail not shown here. Equal entries are not always repeated. Where two headings read alike, the source gives them in different places.
# Assays:
# HEK293T cells = assay: Drug sensitivity assay (CellTiter-Glo viability) with or without MLN4924 pretreatment; format: cell-based, human; conditions: Supplementary Table 2; for EC50: Homo sapiens, HEK-293T, HEK293T viability, 72 h, compound alone, read-out: Cellular assays EC50; for Toxicity rescue: MLN4924-mediated cytotoxicity rescue, 10 µM used where n.d.
# Procedure, shortened: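 First, cells (HEK293T–Cas9, 0.15 × 10^6 ml^−1) are exposed to DMSO or 100 nM MLN4924. Next, drugs follow at 2 h. Finally, CellTiter-Glo is read at day 3 and normalised to DMSO.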
# CDK12–cyclin K and DDB1 = molecular target: T1, CDK12–cyclin K and DDB1 (Homo sapiens, UniProt Q16531+Q9NYV4, K965R); assay: TR-FRET ternary complex formation assay (compound titration); format: binding; conditions: for TR-FRET signal at compound concentration: replicate titrations
# T1 construct: His6–CDK12 (a.a. 713–1,052); full-length or beta-propeller B domain deletion (ΔBPB: a.a. 396–705 deleted) constructs of His6–DDB1ΔBPB, StrepII–Avi–DDB1, or His6–Spy–DDB1; made in house; host or cells: Trichoplusia ni High Five insect cells (baculovirus)
# T1 sequence (Q9NYV4 713-1052 K965R): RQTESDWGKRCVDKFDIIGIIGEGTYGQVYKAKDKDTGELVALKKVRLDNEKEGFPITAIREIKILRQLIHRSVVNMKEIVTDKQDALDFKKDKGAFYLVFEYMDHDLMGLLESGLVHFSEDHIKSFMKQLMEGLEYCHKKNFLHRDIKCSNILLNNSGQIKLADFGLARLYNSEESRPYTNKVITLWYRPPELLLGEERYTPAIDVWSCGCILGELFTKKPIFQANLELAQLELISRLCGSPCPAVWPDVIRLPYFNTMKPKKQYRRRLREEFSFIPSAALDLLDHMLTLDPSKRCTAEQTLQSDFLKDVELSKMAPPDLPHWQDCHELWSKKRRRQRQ
# T1 sequence (O75909 1-267 partner): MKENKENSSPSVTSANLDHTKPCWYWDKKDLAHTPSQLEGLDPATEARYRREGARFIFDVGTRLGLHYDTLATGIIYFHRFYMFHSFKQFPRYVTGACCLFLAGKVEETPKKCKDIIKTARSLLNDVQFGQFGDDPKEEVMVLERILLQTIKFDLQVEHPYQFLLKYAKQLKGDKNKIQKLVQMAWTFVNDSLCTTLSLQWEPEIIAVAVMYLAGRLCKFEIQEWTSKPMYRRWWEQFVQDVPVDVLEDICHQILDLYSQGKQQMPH
# T1 sequence (Q16531 whole entry): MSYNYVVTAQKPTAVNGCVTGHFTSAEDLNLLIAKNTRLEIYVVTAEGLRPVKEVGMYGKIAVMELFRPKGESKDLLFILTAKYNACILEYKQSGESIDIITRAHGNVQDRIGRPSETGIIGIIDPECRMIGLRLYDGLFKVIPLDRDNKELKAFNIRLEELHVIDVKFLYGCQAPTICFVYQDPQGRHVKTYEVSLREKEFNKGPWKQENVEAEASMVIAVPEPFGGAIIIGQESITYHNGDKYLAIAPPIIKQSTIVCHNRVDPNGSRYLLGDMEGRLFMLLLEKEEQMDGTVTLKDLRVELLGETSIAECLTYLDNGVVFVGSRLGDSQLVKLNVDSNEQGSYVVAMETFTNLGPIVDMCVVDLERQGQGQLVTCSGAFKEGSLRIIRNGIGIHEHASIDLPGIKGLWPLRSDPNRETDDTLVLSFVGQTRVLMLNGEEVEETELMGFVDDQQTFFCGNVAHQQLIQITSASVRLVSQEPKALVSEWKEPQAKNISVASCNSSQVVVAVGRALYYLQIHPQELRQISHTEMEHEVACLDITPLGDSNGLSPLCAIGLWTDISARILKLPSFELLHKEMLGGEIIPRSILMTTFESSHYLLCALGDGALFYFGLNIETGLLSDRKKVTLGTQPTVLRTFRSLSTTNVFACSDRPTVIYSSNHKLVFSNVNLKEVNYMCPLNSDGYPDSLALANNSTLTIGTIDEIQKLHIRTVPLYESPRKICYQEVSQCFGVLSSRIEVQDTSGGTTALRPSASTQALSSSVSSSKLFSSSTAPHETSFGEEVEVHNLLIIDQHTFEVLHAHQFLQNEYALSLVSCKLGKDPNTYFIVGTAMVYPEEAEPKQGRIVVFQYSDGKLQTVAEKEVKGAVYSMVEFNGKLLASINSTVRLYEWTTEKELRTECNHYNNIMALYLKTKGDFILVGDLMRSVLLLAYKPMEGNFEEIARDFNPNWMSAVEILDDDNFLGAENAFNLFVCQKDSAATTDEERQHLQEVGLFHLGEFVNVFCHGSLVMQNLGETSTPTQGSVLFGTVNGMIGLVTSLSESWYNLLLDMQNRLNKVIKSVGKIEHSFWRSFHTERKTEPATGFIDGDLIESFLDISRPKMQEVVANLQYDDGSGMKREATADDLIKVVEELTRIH
# Procedure, shortened: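 Background fluorescence is reduced by reading 70 μs after excitation, and complex formation is followed as the 520:490 nm fluorescence ratio.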
# [1] = system: cyclin K–eGFP degradation reporter; assay: Cyclin K reporter stability analysis (dual-color cyclin K–eGFP reporter); format: cell-based, human
# Procedure, shortened: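 Readout was the eGFP-to-mCherry geometric-mean ratio by flow cytometry, normalized to three DMSO controls, after 5 h drug exposure. Cells used were HEK293T–Cas9 expressing the dual-colour cyclin K–eGFP degradation reporter.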
# [2] = compound concentration 79.2001 nM
# [3] = compound concentration 158.4 nM
# [4] = compound concentration 309.6 nM
# [5] = compound concentration 626.401 nM
# [6] = compound concentration 1252.8 nM
# [7] = compound concentration 9936.01 nM
# [8] = compound concentration 20016 nM
# [9] = in vitro complex formation, 50 nM CDK12–cyclin K, 100 nM DDB1, text and figures, read-out: TR-FRET EC50
# [10] = Supplementary Table 2, HEK293T cycK-eGFP reporter, 5 h, read-out: Cellular assays DC50
# [11] = sheet MOESM7, read-out: log TR-FRET EC50 (converted)
EC50 (CDK12–cyclin K and DDB1; [9]),"DC50 [1, 10]",EC50 (CDK12–cyclin K and DDB1; [11]),TR-FRET signal at compound concentration (CDK12–cyclin K and DDB1; compound concentration 4.68 nM),TR-FRET signal at compound concentration (CDK12–cyclin K and DDB1; compound concentration 21.6 nM),TR-FRET signal at compound concentration (CDK12–cyclin K and DDB1; compound concentration 36 nM),TR-FRET signal at compound concentration (CDK12–cyclin K and DDB1; [2]),TR-FRET signal at compound concentration (CDK12–cyclin K and DDB1; [3]),TR-FRET signal at compound concentration (CDK12–cyclin K and DDB1; [4]),TR-FRET signal at compound concentration (CDK12–cyclin K and DDB1; [5]),TR-FRET signal at compound concentration (CDK12–cyclin K and DDB1; [6]),TR-FRET signal at compound concentration (CDK12–cyclin K and DDB1; compound concentration 2448 nM),TR-FRET signal at compound concentration (CDK12–cyclin K and DDB1; [7]),TR-FRET signal at compound concentration (CDK12–cyclin K and DDB1; [8]),Compound,EC50 (HEK293T cells),Toxicity rescue (HEK293T cells),other results
2360 ± 777 nM,> 10000 nM,–,–,–,–,–,–,–,–,–,–,–,–,CC[C@H](CO)Nc1nc(NCc2ccc3cc(O)ccc3c2)c2ncn(C(C)C)c2n1 [DS14],> 10000 nM,0%,TR-FRET signal (CDK12–cyclin K and DDB1; compound concentration 4.68 nM): 0.1364 and 0.1548; TR-FRET signal (CDK12–cyclin K and DDB1; compound concentration 21.6 nM): 0.1403 and 0.1585; TR-FRET signal (CDK12–cyclin K and DDB1; compound concentration 36 nM): 0.1464 and 0.1703; TR-FRET signal (CDK12–cyclin K and DDB1; [2]): 0.164 and 0.1861; TR-FRET signal (CDK12–cyclin K and DDB1; [3]): 0.1899 and 0.214; TR-FRET signal (CDK12–cyclin K and DDB1; [4]): 0.2284 and 0.2573; TR-FRET signal (CDK12–cyclin K and DDB1; [5]): 0.2863 and 0.3257; TR-FRET signal (CDK12–cyclin K and DDB1; [6]): 0.3495 and 0.4048; TR-FRET signal (CDK12–cyclin K and DDB1; compound concentration 2448 nM): 0.4136 and 0.4783; TR-FRET signal (CDK12–cyclin K and DDB1; [7]): 0.5447 and 0.6287; TR-FRET signal (CDK12–cyclin K and DDB1; [8]): 0.6134 and 0.6953
36 ± 2 nM,–,35.6 nM,–,–,–,–,–,–,–,–,–,–,–,CC[C@H](CO)Nc1nc(NCc2ccc(-c3ccncc3)cc2)c2ncn(C(C)C)c2n1 [DS44],300 nM,857%,"TR-FRET signal at compound concentration 0.468 nM (CDK12–cyclin K and DDB1; compound concentration 0.468 nM, raw titration data): 0.2822 and 0.2969 and 0.203 and 0.2011; TR-FRET signal at compound concentration 2.16 nM (CDK12–cyclin K and DDB1; compound concentration 2.16 nM, raw titration data): 0.3572 and 0.3626 and 0.2614 and 0.2567; TR-FRET signal at compound concentration 3.6 nM (CDK12–cyclin K and DDB1; compound concentration 3.6 nM, raw titration data): 0.4873 and 0.5297 and 0.3719 and 0.3575; TR-FRET signal at compound concentration 7.92001 nM (CDK12–cyclin K and DDB1; compound concentration 7.92001 nM, raw titration data): 0.7272 and 0.8095 and 0.5738 and 0.5707; TR-FRET signal at compound concentration 15.84 nM (CDK12–cyclin K and DDB1; compound concentration 15.84 nM, raw titration data): 1.129 and 1.28 and 0.9406 and 0.8919; TR-FRET signal at compound concentration 30.96 nM (CDK12–cyclin K and DDB1; compound concentration 30.96 nM, raw titration data): 1.72 and 1.9375 and 1.384 and 1.358; TR-FRET signal at compound concentration 62.6401 nM (CDK12–cyclin K and DDB1; compound concentration 62.6401 nM, raw titration data): 2.307 and 2.567 and 2.074 and 2.11; TR-FRET signal at compound concentration 125.28 nM (CDK12–cyclin K and DDB1; compound concentration 125.28 nM, raw titration data): 2.789 and 3.0284 and 2.71 and 2.759; TR-FRET signal at compound concentration 244.8 nM (CDK12–cyclin K and DDB1; compound concentration 244.8 nM, raw titration data): 3 and 3.3475 and 2.848 and 3.078; TR-FRET signal at compound concentration 993.601 nM (CDK12–cyclin K and DDB1; compound concentration 993.601 nM, raw titration data): 3.126 and 3.521 and 3.221 and 3.228; TR-FRET signal at compound concentration 2001.6 nM (CDK12–cyclin K and DDB1; compound concentration 2001.6 nM, raw titration data): 3.1032 and 3.41 and 3.238 and 3.193; EC50 (CDK12–cyclin K and DDB1; source data sheet correlations, read-out: TR-FRET EC50): 35.6 nM; DC50 ([1]; source data sheet correlations, read-out: DC50): 62 nM"
246 ± 10 nM,> 10000 nM,246 nM,0.1529 and 0.1552,0.228 and 0.2468,0.3788 and 0.4108,0.6173 and 0.6444,0.9157 and 0.9758,1.283 and 1.333,1.6242 and 1.675,1.8781 and 1.924,2.069 and 2.096,2.24 and 2.273,2.144 and 2.245,CC[C@H](CO)Nc1nc(NCCCc2ccnn2C)c2ncn(C(C)C)c2n1 [DS35],> 10000 nM,0%,"EC50 (CDK12–cyclin K and DDB1; Supplementary Table 2, read-out: TR-FRET EC50 TR-FRET): 246 nM"
182 nM,> 10000 nM,182 nM,0.1682 and 0.1874,0.2977 and 0.3197,0.5215 and 0.541,0.8673 and 0.9745,1.23 and 1.324,1.677 and 1.781,2.096 and 2.217,2.231 and 2.525,2.525 and 2.68,2.633 and 2.833,2.343 and 2.482,CC[C@H](CO)Nc1nc(NCCCCCc2cccc3ccccc23)c2ncn(C(C)C)c2n1 [DS15],> 10000 nM,0%,"TR-FRET signal, individual replicate (CDK12–cyclin K and DDB1; compound concentration 4.68 nM): 0.1682 and 0.1874; TR-FRET signal, individual replicate (CDK12–cyclin K and DDB1; compound concentration 21.6 nM): 0.2977 and 0.3197; TR-FRET signal, individual replicate (CDK12–cyclin K and DDB1; compound concentration 36 nM): 0.5215 and 0.541; TR-FRET signal, individual replicate (CDK12–cyclin K and DDB1; [2]): 0.8673 and 0.9745; TR-FRET signal, individual replicate (CDK12–cyclin K and DDB1; [3]): 1.23 and 1.324; TR-FRET signal, individual replicate (CDK12–cyclin K and DDB1; [4]): 1.677 and 1.781; TR-FRET signal, individual replicate (CDK12–cyclin K and DDB1; [5]): 2.096 and 2.217; TR-FRET signal, individual replicate (CDK12–cyclin K and DDB1; [6]): 2.231 and 2.525; TR-FRET signal, individual replicate (CDK12–cyclin K and DDB1; compound concentration 2448 nM): 2.525 and 2.68; TR-FRET signal, individual replicate (CDK12–cyclin K and DDB1; [7]): 2.633 and 2.833; TR-FRET signal, individual replicate (CDK12–cyclin K and DDB1; [8]): 2.343 and 2.482"
